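Protocol summary: plate cells (96-well), add compound at 5 concentrations, incubate 48 h, interpolate endpoints linearly. Here, GI50 denotes the concentration required for 50% inhibition of growth. TGI is the concentration that stops growth completely.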
What was measured:
Test in all cases: NCI anticancer screen, dose series, 48 h
NCI/ADR-RES ovarian = system: NCI/ADR-RES ovarian
HS 578T breast = system: HS 578T breast
MCF7 breast = system: MCF7 breast
BT-549 breast = system: BT-549 breast
MDA-MB-231 breast = system: MDA-MB-231 breast
DU-145 prostate = system: DU-145 prostate

## Fc1ccc2[nH]c3c(NCCCN4CCOCC4)ncnc3c2c1
NCI/ADR-RES ovarian
  GI50: > 100 µM
  TGI: > 100 µM
HS 578T breast
  GI50: 41.9 µM
  TGI: > 100 µM
MCF7 breast
  GI50: 41500 nM
  TGI: > 100 µM
BT-549 breast
  GI50: 22.5 µM
  TGI: 99.4 µM
MDA-MB-231 breast
  GI50: 23.6 µM
  TGI: > 100 µM
DU-145 prostate
  GI50: 88 µM
  TGI: > 100 µM

## CC[C@H](CC#N)OC(=O)N[C@@H](C)c1cccc(NC(=O)Nc2ccc(-c3cnco3)c(OC)c2)c1
NCI/ADR-RES ovarian
  GI50: 4.87 µM
  TGI: 62.2 µM
HS 578T breast
  GI50: 1.16 µM
  TGI: > 51.6 µM
MCF7 breast
  GI50: 45.8 nM
  TGI: 18.2 µM
BT-549 breast
  GI50: 0.238 µM
  TGI: 34 µM
MDA-MB-231 breast
  GI50: 0.204 µM
  TGI: > 89.5 µM
DU-145 prostate
  GI50: 0.0672 µM
  TGI: 39.3 µM

## CC(=O)OCC1OC(n2ccc(=O)[nH]c2=O)C(OC(C)=O)C1OC(C)=O (centres undefined)
NCI/ADR-RES ovarian
  GI50: > 100 µM
  TGI: > 100 µM
HS 578T breast
  GI50: > 100 µM
  TGI: > 100 µM
MCF7 breast
  GI50: > 100000 nM
  TGI: > 100 µM
BT-549 breast
  GI50: > 100 µM
  TGI: > 100 µM
MDA-MB-231 breast
  GI50: > 100 µM
  TGI: > 100 µM
DU-145 prostate
  GI50: > 100 µM
  TGI: > 100 µM

## Clc1nc(Cl)c2c(ncn2C/C=C\Cn2cnc3c(Cl)nc(Cl)nc32)n1
NCI/ADR-RES ovarian
  GI50: 2.69 µM
  TGI: 11.1 µM
HS 578T breast
  GI50: 1.44 µM
  TGI: 5.36 µM
MCF7 breast
  GI50: 1450 nM
  TGI: 3.17 µM
BT-549 breast
  GI50: 1.61 µM
  TGI: 2.97 µM
MDA-MB-231 breast
  GI50: 1.88 µM
  TGI: 3.65 µM
DU-145 prostate
  GI50: 1.53 µM
  TGI: 2.86 µM

## CO/N=C(\C)c1ccc(Nc2cc(-c3ccccc3)nc3c(O)cccc23)cc1
NCI/ADR-RES ovarian
  GI50: 14.5 µM
  TGI: 30.8 µM
HS 578T breast
  GI50: 18.2 µM
  TGI: 46.1 µM
BT-549 breast
  GI50: 15.5 µM
  TGI: 32.7 µM
MDA-MB-231 breast
  GI50: 15 µM
  TGI: 30.6 µM
DU-145 prostate
  GI50: 14.1 µM
  TGI: 32 µM

## CC(C)NC(=O)OCCS(=O)c1c(Cl)c(Cl)nn1C (centres undefined)
NCI/ADR-RES ovarian
  TGI: > 100 µM
HS 578T breast
  TGI: > 100 µM
MCF7 breast
  TGI: > 100 µM
MDA-MB-231 breast
  TGI: 70.7 µM
DU-145 prostate
  TGI: > 100 µM

## Oc1ccc(CCCCCCc2ccc(O)cc2)cc1
NCI/ADR-RES ovarian
  GI50: 3.99 µM
  TGI: 17.4 µM
HS 578T breast
  GI50: 13.3 µM
  TGI: 37.4 µM
MCF7 breast
  GI50: 6910 nM
  TGI: 22.3 µM
BT-549 breast
  GI50: 2.94 µM
  TGI: 18.7 µM
MDA-MB-231 breast
  GI50: 9.66 µM
  TGI: 25.9 µM
DU-145 prostate
  GI50: 4.8 µM
  TGI: 15.2 µM

## CCCCCCCCCCCC[n+]1ccc(CCCCCCCCC)cc1
NCI/ADR-RES ovarian
  GI50: 1.86 µM
  TGI: 3.62 µM
DU-145 prostate
  GI50: 1.37 µM
  TGI: 2.75 µM

## Nc1cc(N)c(N)cc1N
NCI/ADR-RES ovarian
  GI50: 2.24 µM
  TGI: 7.1 µM
HS 578T breast
  GI50: 2.01 µM
  TGI: 5.37 µM
MCF7 breast
  GI50: 1790 nM
  TGI: 3.81 µM
MDA-MB-231 breast
  GI50: 5.02 µM
  TGI: 29.4 µM
DU-145 prostate
  GI50: 1.75 µM
  TGI: 3.18 µM

## C=C(C)C(=O)O[C@H]1[C@H]2[C@H](OC(=O)[C@H]2C)[C@H](O)[C@@H](C)[C@@H]2C=CC(=O)[C@]21C
NCI/ADR-RES ovarian
  TGI: 9.61 µM
HS 578T breast
  TGI: 32.5 µM
MCF7 breast
  TGI: 15.5 µM
BT-549 breast
  TGI: 15.5 µM
MDA-MB-231 breast
  TGI: 14 µM
DU-145 prostate
  TGI: 12.9 µM

## Clc1nc(Cl)c2ncn(Cc3ccc(COc4cccc(OCc5ccc(Cn6cnc7c(Cl)nc(Cl)nc76)cc5)c4)cc3)c2n1
NCI/ADR-RES ovarian
  GI50: 39.5 µM
  TGI: > 100 µM
HS 578T breast
  GI50: 54.1 µM
  TGI: > 100 µM
MCF7 breast
  GI50: 28900 nM
  TGI: > 100 µM
BT-549 breast
  GI50: 25.6 µM
  TGI: > 100 µM
MDA-MB-231 breast
  GI50: 17.4 µM
  TGI: 53.2 µM
DU-145 prostate
  GI50: 18.5 µM
  TGI: 48.1 µM

## CC12CCC(=O)C=C1CCC1C2C(O)CC2(C)C(c3csc(N)n3)CCC12 (centres undefined)
NCI/ADR-RES ovarian
  TGI: > 100 µM
HS 578T breast
  TGI: > 100 µM
MCF7 breast
  TGI: > 100 µM
BT-549 breast
  TGI: > 100 µM
MDA-MB-231 breast
  TGI: > 100 µM
DU-145 prostate
  TGI: > 100 µM

## CCCCn1cnc2c(SC)ncnc21
NCI/ADR-RES ovarian
  TGI: > 100 µM
HS 578T breast
  TGI: > 100 µM
MCF7 breast
  TGI: > 100 µM
BT-549 breast
  TGI: > 100 µM
MDA-MB-231 breast
  TGI: > 100 µM
DU-145 prostate
  TGI: > 100 µM

## O=C1C(Cl)=C(Nc2cccc(O)c2)C(=O)N1c1cc(Cl)c(Cl)cc1Cl
NCI/ADR-RES ovarian
  GI50: 24.9 µM
  TGI: 55.7 µM
HS 578T breast
  GI50: 17.6 µM
  TGI: 39.4 µM
MCF7 breast
  GI50: 20300 nM
  TGI: 54.7 µM
MDA-MB-231 breast
  GI50: 12.7 µM
  TGI: 29.5 µM
DU-145 prostate
  GI50: 17.4 µM
  TGI: 39.3 µM

## CC(=O)[O-].CC(=O)[O-].[NH2-].[Pt+2].c1ccc2cnccc2c1
NCI/ADR-RES ovarian
  GI50: 64.4 µM
  TGI: > 100 µM
HS 578T breast
  GI50: 60.4 µM
  TGI: > 100 µM
MCF7 breast
  GI50: 11300 nM
  TGI: 42.8 µM
MDA-MB-231 breast
  GI50: 27.3 µM
  TGI: > 100 µM
DU-145 prostate
  GI50: 12.2 µM
  TGI: 64.2 µM

## C[C@@H]1COCCN1c1cc(C2(S(C)(=N)=O)CC2)nc(-c2ccnc3[nH]ccc23)n1 (some centres undefined)
NCI/ADR-RES ovarian
  GI50: 23.3 µM
  TGI: 88.8 µM
HS 578T breast
  GI50: 2.77 µM
  TGI: 22.1 µM
MCF7 breast
  GI50: 528 nM
  TGI: 70.2 µM
MDA-MB-231 breast
  GI50: 3.92 µM
  TGI: 74.7 µM
DU-145 prostate
  GI50: 3.06 µM
  TGI: > 100 µM

## Cc1nc2sc(C(=O)Nc3ccccc3)c(N)c2cc1C(=O)/C=C/c1ccccc1
HS 578T breast
  GI50: 2.79 µM
  TGI: > 100 µM
MCF7 breast
  GI50: 1530 nM
  TGI: 5.51 µM
BT-549 breast
  GI50: 1.71 µM
  TGI: 3.63 µM
MDA-MB-231 breast
  GI50: 3.41 µM
  TGI: 11.3 µM
DU-145 prostate
  GI50: 1.81 µM
  TGI: 3.6 µM

## NC(C(=O)[O-])C(=O)[O-].NC1CCCCC1N.[Pt+4]
NCI/ADR-RES ovarian
  GI50: 4.41 µM
  TGI: > 100 µM
HS 578T breast
  GI50: > 100 µM
  TGI: > 100 µM
MCF7 breast
  GI50: 1710 nM
  TGI: 5.49 µM
BT-549 breast
  GI50: > 100 µM
  TGI: > 100 µM
MDA-MB-231 breast
  GI50: 31.8 µM
  TGI: > 100 µM

— PubChem BioAssay (NCI)
